Test results published in patent US20140221286A1, “SODIUM CHANNEL BLOCKERS REDUCE GLUCAGON SECRETION” (Gilead Sciences, Inc., priority 2011, published 2014).

Key:
Type in all cases: cell-based
rat pancreatic islets [1] = assay: Veratridine-induced glucagon secretion in rat pancreatic islets; details: veratridine 30 μM
[2] = tested on: rat isolated pancreatic α-cell; assay: Spontaneous electrical activity of isolated pancreatic α-cells (membrane potential recording)
Protocol: Acutely isolated pancreatic islets were allowed to recover overnight at 37° C./5% CO2 in Islet Media (RMPI 1640 supplemented with 10 mM HEPES, 1 mM sodium pyruvate, 10% FBS, 100 U/mL penicillin, 100 μg/mL streptomycin, 2 mM L-glutamine). The islets were resuspended and then centrifuged for 3 minutes at 200×g. […] The number of live cells was counted and diluted to 1×10^5 with Islet Media. […]
Membrane potential and ion channel currents were recorded 24-72 hours after dispersion using the perforated patch configuration. […] Series resistance (Rs) was monitored using a voltage step from −70 mV to 0 mV (5 ms, 0.5 Hz) and was allowed to stabilize prior to beginning the experiment (Rs<30 MOhm).
The identity of the α-cell was confirmed using cell size (membrane capacitance <6 pF) and the presence of electrical activity in low (3 mM) extracellular glucose, which are hallmarks of dispersed α-cells. […] All recordings were made using pClamp 10.2 and were analyzed using Microsoft Excel 2003, Graphpad Prism7 or OriginPro7.
Recordings of membrane potential were made at 32° C. […] Representative records (30 sec) were analyzed using the event detection feature (threshold of 10 mV) to quantitate the spontaneous firing frequency and total charge movement. The membrane potential between events was measured for changes induced by the compound. […]

rat pancreatic islets [3] = assay: Arginine-induced glucagon secretion in rat pancreatic islets; details: L-arginine 20 mM
human pancreatic islets = assay: Glucagon secretion in human pancreatic islets under low glucose (3 mM), ELISA; details: 3 mM glucose
hNaV1.7 = hNaV1.7 (Homo sapiens, UniProt Q15858); assay: Voltage-dependent block (VDB) of hNaV1.7, QPatch whole-cell voltage-clamp in HEK-293 cells; details: 8 s prepulse to −60 mV; at a given concentration (not given)
Sequence of hNaV1.7 (Q15858 1-1977 isoform Q15858-3): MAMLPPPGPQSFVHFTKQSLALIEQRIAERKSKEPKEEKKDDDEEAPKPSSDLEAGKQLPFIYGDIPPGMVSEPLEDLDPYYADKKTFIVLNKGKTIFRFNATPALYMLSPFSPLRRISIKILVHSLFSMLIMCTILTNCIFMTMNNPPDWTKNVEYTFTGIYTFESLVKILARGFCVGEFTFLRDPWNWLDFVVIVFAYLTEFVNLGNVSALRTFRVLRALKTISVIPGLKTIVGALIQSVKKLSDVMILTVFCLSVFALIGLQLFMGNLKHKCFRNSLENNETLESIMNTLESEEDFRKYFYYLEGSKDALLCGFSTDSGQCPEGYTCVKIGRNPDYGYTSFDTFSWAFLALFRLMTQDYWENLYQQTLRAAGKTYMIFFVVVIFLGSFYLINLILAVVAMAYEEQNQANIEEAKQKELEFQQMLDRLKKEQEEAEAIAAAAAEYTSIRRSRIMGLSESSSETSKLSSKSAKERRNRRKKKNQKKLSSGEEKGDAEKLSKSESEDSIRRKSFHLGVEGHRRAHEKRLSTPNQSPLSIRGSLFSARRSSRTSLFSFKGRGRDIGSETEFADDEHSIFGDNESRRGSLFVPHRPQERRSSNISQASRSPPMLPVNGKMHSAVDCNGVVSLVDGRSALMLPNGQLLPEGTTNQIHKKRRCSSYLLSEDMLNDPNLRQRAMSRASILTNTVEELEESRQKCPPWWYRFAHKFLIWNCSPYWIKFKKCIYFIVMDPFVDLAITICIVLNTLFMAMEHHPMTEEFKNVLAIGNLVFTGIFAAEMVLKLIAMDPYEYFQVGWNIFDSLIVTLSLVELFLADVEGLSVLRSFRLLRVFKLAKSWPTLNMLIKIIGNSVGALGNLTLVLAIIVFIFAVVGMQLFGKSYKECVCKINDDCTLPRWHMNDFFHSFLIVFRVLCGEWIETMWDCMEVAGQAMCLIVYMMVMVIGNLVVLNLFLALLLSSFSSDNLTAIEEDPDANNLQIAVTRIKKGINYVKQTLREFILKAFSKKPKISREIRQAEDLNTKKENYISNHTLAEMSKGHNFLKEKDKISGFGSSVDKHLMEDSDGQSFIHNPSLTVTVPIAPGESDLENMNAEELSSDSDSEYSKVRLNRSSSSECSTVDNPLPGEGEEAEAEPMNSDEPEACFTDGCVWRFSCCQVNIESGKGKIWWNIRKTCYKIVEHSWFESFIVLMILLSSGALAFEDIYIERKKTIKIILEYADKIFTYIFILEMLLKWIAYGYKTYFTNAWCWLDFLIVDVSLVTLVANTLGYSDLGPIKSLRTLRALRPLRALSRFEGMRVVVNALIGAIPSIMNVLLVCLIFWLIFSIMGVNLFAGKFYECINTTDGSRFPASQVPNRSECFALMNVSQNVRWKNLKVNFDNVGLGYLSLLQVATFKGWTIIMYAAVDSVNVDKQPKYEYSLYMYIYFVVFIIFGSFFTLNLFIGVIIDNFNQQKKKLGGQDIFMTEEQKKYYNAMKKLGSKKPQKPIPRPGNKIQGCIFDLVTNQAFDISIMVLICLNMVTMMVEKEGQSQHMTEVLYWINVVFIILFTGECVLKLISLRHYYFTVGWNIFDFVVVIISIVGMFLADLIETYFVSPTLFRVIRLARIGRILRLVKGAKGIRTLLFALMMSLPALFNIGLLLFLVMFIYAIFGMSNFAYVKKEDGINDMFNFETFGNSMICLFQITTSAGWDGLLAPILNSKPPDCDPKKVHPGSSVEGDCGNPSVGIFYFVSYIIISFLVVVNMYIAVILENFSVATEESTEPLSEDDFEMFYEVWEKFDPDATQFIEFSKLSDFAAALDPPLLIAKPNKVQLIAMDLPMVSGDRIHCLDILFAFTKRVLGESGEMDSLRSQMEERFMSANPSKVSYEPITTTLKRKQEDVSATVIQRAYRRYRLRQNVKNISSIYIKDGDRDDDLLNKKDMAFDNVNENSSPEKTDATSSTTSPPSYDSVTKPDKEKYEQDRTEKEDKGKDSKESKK
Sequence of hNaV1.7 (Q07699 19-218 partner): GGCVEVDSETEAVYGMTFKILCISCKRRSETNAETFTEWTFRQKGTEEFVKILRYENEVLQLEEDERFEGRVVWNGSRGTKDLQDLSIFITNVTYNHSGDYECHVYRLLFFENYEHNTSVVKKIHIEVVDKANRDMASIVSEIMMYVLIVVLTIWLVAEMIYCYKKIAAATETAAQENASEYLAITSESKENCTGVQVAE
Protocol: Voltage-dependent block (VDB) of […] was determined by whole-cell voltage-clamp recordings of sodium current using a QPatch 16× automated electrophysiological system in HEK 293 cells overexpressing Nav 1.3 and Nav 1.7 sodium channels, respectively. VDB of peak current was measured using an 8 s conditioning prepulse (to -55 mV for NaV1.3 and to −60 mV for […]) followed by a test pulse (0 mV, 20 ms). Currents are normalized to the peak current recorded in the absence of drug and expressed as percent inhibition. […] Glucagon secretion in the cells was induced by the treatment with veratridine at 30 μM for 1 hour in Krebs-Ringer buffer containing 0.1% BSA. Percent inhibition of glucagon secretion by Na channel blockers was calculated from the reduction of veratridine-induced glucagon secretion in the absence of drug.
The cells were continuously maintained in a humidified, 5% CO2 atmosphere at 37° C. in MEM growth medium supplemented with 10% FBS, 2 mM L-glutamine, 100 U/mL penicillin, 100 μg/mL streptomycin, 0.6 mg/mL G418 and 2 μg/mL blastocydin.
Whole-cell voltage-clamp recordings were used to measure the activity of test compounds against hNaV1.3 and hNaV1.7. Sodium currents were recorded at room temperature using a QPatch 16× automated electrophysiological system (Sophion Bioscience, Copenhagen, Denmark). Cells were washed with PBS and then incubated with Detachin for 2 minutes at room temperature. Cells were then resuspended in growth media, pelleted by centrifugation and resuspended in CHO-S-SFM II serum free media supplemented with 100 U/mL penicillin, 100 μg/mL streptomycin and 10 mM HEPES. The cells were allowed to recover for 30 min at room temperature with constant stirring and then loaded into the QPatch cell holder.
The cells were loaded into primed single hole (2 MΩ) large QPlates and the whole-cell configuration was established using the default protocol. Cells were allowed to stabilize for 10 min after establishment of the whole-cell configuration before current was measured. […] All currents are low-pass Bessel filtered at 5 kHz and digitized at 50 kHz.
Specific voltage-clamp protocols assessing voltage-dependent block (VDB, also termed state-dependent block) are used. VDB of peak current was measured following an 8 s conditioning prepulse (to -55 mV for NaV1.3 and to −60 mV for NaV1.7) followed by a test pulse to 0 mV (20 ms). An interpulse (−120 mV, 10 ms) was used to recover non-drug bound channels from fast inactivation. The prepulse potential was determined by the steady-state inactivation curves for NaV1.3 and NaV1.7. […] Multiple applications of drug were used to ensure complete solution exchange and the cells were allowed to stabilize in the drug containing solution for two minutes. Currents were normalized to the peak current recorded in the absence of drug and expressed as percent inhibition.

SMILES | reduction of veratridine-induced glucagon secretion (in words) (rat pancreatic islets [1]) | reduction of spontaneous electrical activity ([2]; 10 μM) | reduction of L-arginine-induced increase in glucagon secretion (rat pancreatic islets [3]; at 10 μM) | maximal reduction of glucagon secretion as compared to the vehicle control (human pancreatic islets; at 30 μM) | hNav1.7 VDB % Inhibition (hNaV1.7) | reduction of spontaneous electrical activity ([2]; at 0.3 μM) | reduction of L-arginine-induced increase in glucagon secretion (rat pancreatic islets [3]; at 1 μM) | maximal reduction of glucagon secretion as compared to the vehicle control (human pancreatic islets; at 3 μM)
COc1ccccc1OCC(O)CN1CCN(CC(=O)Nc2c(C)cccc2C)CC1 (racemic) [Ranolazine, ±-N-(2,6-dimethylphenyl)-4-[2-hydroxy-3-(2-methoxyphenoxy)-propyl]-1-piperazineacetamide] | concentration-dependently reduced | 44% | 31±9% | 36±4% | 17.23% |  |  | 
FC(F)(F)Oc1ccc(-c2ccc3nnc(C(F)(F)F)n3c2)cc1 [Compound A, 6-(4-(trifluoromethoxy)phenyl)-3-(trifluoromethyl)-[1,2,4]triazolo[4,3-α]pyridine] | concentration-dependently reduced |  |  |  | 87.17% | 75% | 24±6% | 51±9%
